{"source": "patent US20240361338A1", "about": "“DIAGNOSIS AND TREATMENT OF ECTOPIC ENDOMETRIOSIS” (FERRING B.V., priority 2021, published 2024)", "format_in_all_cases": "cell-based, human", "key": {"[1]": {"test_system": "D2 mRNA expression in ectopic EMSCs", "assay": "Real Time PCR of D2 mRNA expression after quinagolide treatment", "conditions": "ectopic lines, 48 h of 100 nM quinagolide, vs untreated", "excerpt": "FIG. 2: Effect of quinagolide on D2 expression in eutopic and ectopic EMSCs. A: Western blot analysis showing the presence of D2 in […] different passages, and in sorted SUSD2^+ E-MSCs. B: Real Time PCR analysis showing the relative quantification (RQ) of D2 mRNA expression by eutopic and ectopic EMSCs. Data are represented as mean±SD of three different eutopic or ectopic (ovarian and peritoneal) lines and normalized to GAPDH and to eutopic […]: Real Time PCR analysis showing D2 mRNA expression after 48 h of 100 nM quinagolide treatment (Q100) by eutopic and ectopic EMSCs. Data are represented as mean±SD of three different eutopic or ectopic (ovarian and peritoneal) lines and normalized to GAPDH and to untreated […] was performed: *=P<0.05 vs CTL. Trizol Reagent (Ambion) was used to isolate total RNA of different cell preparations, according to the manufacturer's protocol. RNA was then quantified spectrophotometrically using Nanodrop ND-1000. Quantitative real-time PCR was performed for gene expression analysis. Briefly, using the HighCapacity cDNA Reverse Transcription Kit (Applied Biosystems), first-strand cDNA was produced from 200 ng of total RNA. […] Fold change expression respect to control was calculated for all samples."}, "ectopic EMSCs": {"test_system": "ectopic EMSCs", "assay": "Annexin V apoptosis assay on E-MSCs", "conditions": "different concentrations, after 24, 48 and 72 hours", "experimental": "FIG. 3: Quinagolide effect on EMSCs apoptosis and proliferation. A: Quinagolide concentration-response curve on ectopic EMSCs in both apoptosis (N=1) and proliferation (N=2) assays. B: Effect of two selected quinagolide doses (10^−5 and 10^−7M) on HUVECs (N=1) and ectopic E-MSCs (N=3) apoptosis and proliferation assays (N=2). Data are represented as mean±SD of the indicated number of experiments and normalized to untreated cells (Control). Annexin V assays were performed using the Muse™ Annexin V & Dead Cell Kit (Millipore), according to the manufacturer's recommendations. Briefly, 20×10^3 cells were plated and after 24 h treated with different concentrations of quinagolide. After 24, 48 and 72 hours, cells were detached and resuspended in Muse™ Annexin V & Dead Cell Kit and the percentage of apoptotic cells (Annexin V+) was measured. Data are expressed as the mean±standard deviation (SD) of the media of absorbance of at least three different experiments and normalized to control."}, "HUVECs": {"test_system": "HUVECs", "assay": "BrdU cell proliferation assay on HUVECs", "conditions": "after 24 hours of quinagolide treatment, 10^-5 and 10^-7 M", "experimental": "FIG. 3: Quinagolide effect on EMSCs apoptosis and proliferation. A: Quinagolide concentration-response curve on ectopic EMSCs in both apoptosis (N=1) and proliferation (N=2) assays. B: Effect of two selected quinagolide doses (10^−5 and 10^−7M) on HUVECs (N=1) and ectopic E-MSCs (N=3) apoptosis and proliferation assays (N=2). Data are represented as mean±SD of the indicated number of experiments and normalized to untreated cells (Control). Cells were plated in growth medium at a concentration of 2,500 HUVECs/well and 3,000 E-MSCs/well in a 96-multiwell plate. The day after quinagolide was added to the growth medium at different concentrations after 24 hours. Deoxyribonucleic acid synthesis was detected as incorporation of 5-bromo-2-deoxyuridine (BrdU) into the cellular DNA after 48 hours from cell plaiting, using an enzyme-linked assay kit (Chemicon). Untreated cells were used as control. Data are expressed as the mean±standard deviation (SD) of the media of absorbance of at least three different experiments and normalized to control."}, "VEGF": {"test_system": "VEGF", "assay": "VEGF levels in the E-MSC-HUVEC coculture model", "conditions": "quinagolide treated coculture", "experimental": "An indirect co-culture assembly was obtained plaiting HUVECs and E-MSCs at a ratio of 1:1 (1.5×10^4/cell line) in E-MSC medium in T25 and maintaining the co-culture for 48 h in 37° C. and 5% CO2 atmosphere incubator. HUVECs and E-MSCs cultured alone were used as control for each experiment."}, "AKT [2]": {"test_system": "AKT", "assay": "Western blot of AKT and P-AKT in ectopic EMSCs", "conditions": "100 nM quinagolide", "experimental": "(§1) FIG. 6: Quinagolide effect on AKT activation. A: Representative western blot analysis and quantification of AKT levels in eutopic and ectopic EMSCs treated for 48 h with 100 nM quinagolide (Q), compared to untreated cells (CTL). B: Representative western blot analysis and quantification of P-AKT levels, normalized to AKT expression, in eutopic and ectopic EMSCs treated for 48 h with 100 nM quinagolide (Q), respect to untreated cells (CTL). C: Representative western blot analysis and quantification of P-AKT levels in HUVECs, ectopic […] basal), and in […] co-culture with HUVECs, treated or not for 24 h with 100 nM quinagolide (Q100 nM). Data are represented as mean±SD of at least two independent experiments, performed on different EMSC lines, and normalized to Vinculin and to untreated cells (CTL). One-way ANOVA was performed: *=p<0.05 and **=p<0.001 vs CTL. Cell pellets were lysed at 4° C. for 15 minutes in RIPA buffer supplemented with protease and phosphatase inhibitors cocktail and PMSF (Sigma-Aldrich). Proteins were quantified using Bradford solution following the manufacturer procedures (Bio-Rad Inc., Berkely, CA, USA) and aliquots of cell lysates containing 50 μg of proteins were run on 4-12% Mini-Protean TGX Stain-Free Gels (Bio-Rad) under reducing conditions and transferred onto PVDF membrane filters using the iBLOT2 system (Life Technologies). […]"}, "AKT [3]": {"test_system": "AKT", "assay": "Western blot of P-AKT in eutopic EMSCs", "conditions": "eutopic cell lines, 100 nM quinagolide, 24 hours (text; legend 48 h)", "experimental": "as §1"}}}
{"smiles": "CCCN1C[C@@H](NS(=O)(=O)N(CC)CC)C[C@@H]2Cc3c(O)cccc3C[C@H]21", "note": "[quinagolide, N,N-diethyl-N′-[(3S,4aS,10aR)-6-hydroxy-1-propyl-1,2,3,4,4a,5,10,10a-octahydrobenzo[g]quinolin-3-yl]sulfamide]", "values": [{"measurement": "D2 mRNA expression", "setting": "[1]", "value": "reduced"}, {"measurement": "apoptosis of E-MSCs (Annexin V+)", "setting": "ectopic EMSCs", "value": "did not increase apoptosis"}, {"measurement": "proliferation of HUVEC cells", "setting": "HUVECs", "value": "did not show alteration"}, {"measurement": "levels of VEGF in the coculture model", "setting": "VEGF", "value": "did not reduce"}, {"measurement": "total AKT levels", "setting": "AKT [2]; ectopic EMSCs, 48 h (FIG. 6A)", "value": "reduced"}, {"measurement": "AKT phosphorylation", "setting": "AKT [2]; ectopic cell lines, 24 hours (text; legend 48 h)", "value": "significant decrease"}, {"measurement": "AKT phosphorylation", "setting": "AKT [3]", "value": "significant decrease"}]}
